Columns and labels:
[1] = assay type: in vitro ADME, mice, rats, monkeys, humans; settings: blood, microsomes, S9, hepatocytes; rat samples
Protocol: In vitro metabolism of ALC-0315 and ALC-0159 was evaluated in blood, liver microsomes, S9 fractions, and hepatocytes from mice, rats, monkeys, and humans. In vivo metabolism was examined in rat plasma, urine, faeces, and liver samples from the PK study. […] ALC-0315 and ALC-0159 are apparently metabolised by hydrolytic metabolism of the ester and amide functionalities, respectively, and this hydrolytic metabolism is observed across the species evaluated.

in vivo = assay type: in vivo, rats; settings: rat; for drop of concentration in liver / drop of concentration in plasma: 2 weeks
Protocol: A single dose PK study of ALC-0315 and […] following intravenous (IV) bolus injection of a nanparticle formulation in rats was conducted to assess the PK and metabolism of lipid excipients ALC-0315 and ALC-0159.

luciferase expression = assay type: in vivo, mice; settings: ALC-0315/DSPC/CHOL/ALC-0159 prototype; IV

Molecule	metabolism in vitro and in vivo [1]	half-life (in vivo; in vivo, IV bolus, read-out: apparent terminal t½ in plasma and liver) [h]	eliminated unchanged in faeces (in vivo) [%]	drop of concentration in liver (in vivo; IV bolus) [fold]	drop of concentration in plasma (in vivo; IV bolus)	unchanged material in urine or faeces (in vivo)	apparent terminal t½ in plasma and liver (in vivo; IV bolus) [h]	in vivo potency of Luc RNA LNP vs internal benchmark ALC-0218 (luciferase expression)
CCCCCCCCCCCCCCN(CCCCCCCCCCCCCC)C(=O)COCCOCCOCCOCCOCCOCCOCCOCCOCCOCCOCCOCCOCCOCCOCCOCCOCCOCCOCCOCCOCCOCCOCCOCCOCCOCCOCCOCCOCCOCCOCCOCCOCCOCCOCCOCCOCCOCCOCCOCCOCCOCCOCCOCCOCCOC [ALC-0159, 2-[(polyethylene glycol)-2000]-N,N-ditetradecylacetamide]	relatively slowly	48 to 72	50	> 250	approximately 8000 fold			
((4-hydroxybutyl)azanediyl)bis(hexane-6,1-diyl)bis(2-hexyldecanoate) [ALC-0315]	relatively slowly			~4	approximately 7000 fold	little to no unchanged material was detected	140 to 190	improved potency

From patent publication US12133899B2 (priority 2020, dated 2024)
